From patent US20260130933A1, “PHARMACEUTICAL COMPOSITION FOR PREVENTION OR TREATMENT OF NEPHROPATHY AND/OR DIABETES MELLITUS, COMPRISING ENAVOGLIFLOZIN” (DAEWOONG PHARMACEUTICAL CO., LTD., priority 2022, published 2026)

Experiment: Example 3: phase 3 trial, enavogliflozin 0.3 mg vs dapagliflozin 10 mg once a day for 24 weeks added to metformin and gemigliptin in patients with type 2 diabetes (same endpoints, rescue drug)
Type: in vivo, human
Conditions: week 12
Procedure: 1) when Metformin (≥1,000 mg/Day) was Administered at a Constant Dose for at Least 8 Weeks Prior to Pre-Visit (Pre-Screening) • Metformin (≥1,000 mg/day) and gemigliptin (50 mg/day) were co-administered during the 8-week stabilization period. […] 4) when Metformin (≥1,000 mg/Day) and Gemigliptin (50 mg/Day) were Co-Administered at Constant Doses for at Least 8 Weeks Prior to Pre-Visit (Prescreening) • Without a separate stabilization period, Pre-visit (pre-screening) was Visit 1 (screening).
Subjects who met the inclusion/exclusion criteria continued to receive metformin and gemigliptin while receiving a placebo of the clinical trial drug in a single-blind (subject-blinded) state for a 2-week run-in period.
Here, the randomized subjects were stratified according to the administration therapy (co-administration with two or less agents (one or two agents) or three or more agents) of a conventional hypoglycemic agent (before washout of another hypoglycemic agent) within 24 weeks prior to obtaining written informed consent and by an HbA1c value (<8% or ≥8%) at Visit 1 (screening) measured in the central laboratory.
The randomized subjects were administered two tablets of the clinical trial drug corresponding to each administration group once a day, and then visited the institution at weeks 6, 12, 18, and 24 during the 24-week administration period to conduct efficacy and safety assessments. In addition, during the clinical trial period, they were instructed to exercise regularly and control their diet without changing their daily life patterns.
• 1) Change in HbA1c at week 24 after administration of clinical trial drug compared to Visit 2 (randomization)
• 1) Change in HbA1c at each time point of weeks 6, 12, and 18 after administration of clinical trial drug compared to Visit 2 (randomization) • 2) Change in FPG at each time point of weeks 6, 12, 18, and 24 after administration of clinical trial drug compared to Visit 2 (randomization) • 3) Proportion of subjects achieving HbA1c<7% at each time point of weeks 6, 12, 18, and 24 after administration of clinical trial drug • 4) Proportion of subjects achieving HbA1c<6.5% at each time point of weeks 6, 12, 18, and 24 after administration of clinical trial drug • 5) Proportion of subjects achieving therapeutic response (HbA1c change (HbA1c at Visit 2—HbA1c at each evaluation time point)>0.5% or HbA1c<7% at each evaluation time point compared to Visit 2 (randomization)) at each time point of weeks 6, 12, 18, and 24 after administration of clinical trial drug • 6) Proportion of subjects achieving therapeutic response (HbA1c change (HbA1c at Visit 2—HbA1c at each evaluation time point)>0.7% or HbA1c<7% at each evaluation time point compared to Visit 2 (randomization)) at each time point of weeks 6, 12, 18, and 24 after administration of clinical trial drug • 7) Proportion of subjects achieving therapeutic response (HbA1c change (HbA1c at Visit 2—HbA1c at each evaluation time point)>1% or HbA1c<7% at each evaluation time point compared to Visit 2 (randomization)) at each time point of weeks 6, 12, 18, and 24 after administration of clinical trial drug

[1] = modified per-protocol set 2, enavogliflozin 0.3 mg, dapagliflozin 10 mg
[2] = per-protocol set, enavogliflozin 0.3 mg vs dapagliflozin 10 mg
[3] = per-protocol set, enavogliflozin 0.3 mg, dapagliflozin 10 mg

With `OC[C@H]1O[C@@H](c2cc(Cc3ccc(C4CC4)cc3)c(Cl)c3c2CCO3)[C@H](O)[C@@H](O)[C@@H]1O` [Enavogliflozin, (2S,3R,4R,5S,6R)-2-(7-chloro-6 (4-cyclopropylbenzyl)-2,3-dihydrobenzofuran-4-yl)-6-(hydroxymethyl)tetrahydro-2H-pyran-3,4,5-triol] the “Change from baseline in diastolic blood pressure, Mean” value (modified per-protocol set 2) was −5.07 mmHg, the “Change from baseline in diastolic blood pressure, Median” value (modified per-protocol set 2) was −5.00 mmHg and the “Diastolic blood pressure, Mean” value (modified per-protocol set 2) was 71.61 mmHg. The “Diastolic blood pressure, Median” value (modified per-protocol set 2) was 72.00 mmHg, the “Change from baseline in systolic blood pressure, ANCOVA LS mean difference” value (modified per-protocol set 2, enavogliflozin 0.3 mg vs dapagliflozin 10 mg) was −1.37 mmHg and the “Change from baseline in systolic blood pressure, ANCOVA LS mean” value [1] was −6.43 mmHg. The “Change from baseline in systolic blood pressure, Mean” value [1] was −7.10 mmHg, the “Change from baseline in systolic blood pressure, Median” value [1] was −8.00 mmHg and the “Systolic blood pressure, Mean” value [1] was 120.73 mmHg. For the same compound, the “Systolic blood pressure, Median” value [1] was 121.00 mmHg, the “Adiponectin, Mean” value (per-protocol set) was 7.13 µg/mL and the “Adiponectin, Median” value (per-protocol set) was 6.24 µg/mL. The “Change from baseline in HOMA-IR, ANCOVA LS mean” value (per-protocol set) was −1.11, the “Change from baseline in HOMA-IR, LS mean difference (enavogliflozin − dapagliflozin)” value (per-protocol set) was −0.06 and the “Change from baseline in HOMA-IR, Mean” value (per-protocol set) was −1.16. For the same compound, the “Change from baseline in HOMA-IR, Median” value (per-protocol set) was −0.79, the “Change from baseline in HOMA-β, ANCOVA LS mean” value (per-protocol set) was 7.78 and the “Change from baseline in HOMA-β, LS mean difference (enavogliflozin − dapagliflozin)” value (per-protocol set) was 2.55. For the same compound, the “Change from baseline in HOMA-β, Mean” value (per-protocol set) was 6.71, the “Change from baseline in HOMA-β, Median” value (per-protocol set) was 4.80 and the “Change from baseline in UACR, ANCOVA LS mean” value (per-protocol set) was -15.12 g/kg. For the same compound, the “Change from baseline in UACR, LS mean difference (enavogliflozin − dapagliflozin)” value (per-protocol set) was -3.35 g/kg, the “Change from baseline in UACR, Mean” value (per-protocol set) was -18.62 g/kg and the “Change from baseline in UACR, Median” value (per-protocol set) was -1.05 g/kg. The “Change from baseline in UGCR, ANCOVA LS mean” value (per-protocol set) was 58.21 mg/mg, the “Change from baseline in UGCR, LS mean difference (enavogliflozin − dapagliflozin)” value (per-protocol set) was 13.37 mg/mg and the “Change from baseline in UGCR, Mean” value (per-protocol set) was 57.00 mg/mg. For the same compound, the “Change from baseline in UGCR, Median” value (per-protocol set) was 57.05 mg/mg, the “Change from baseline in adiponectin, ANCOVA LS mean” value (per-protocol set) was 0.89 µg/mL and the “Change from baseline in adiponectin, LS mean difference (enavogliflozin − dapagliflozin)” value (per-protocol set) was 0.19 µg/mL. For the same compound, the “Change from baseline in adiponectin, Mean” value (per-protocol set) was 0.88 µg/mL, the “Change from baseline in adiponectin, Median” value (per-protocol set) was 1.00 µg/mL and the “Change from baseline in leptin, ANCOVA LS mean” value (per-protocol set) was -1.97 ng/mL. For the same compound, the “Change from baseline in leptin, LS mean difference (enavogliflozin − dapagliflozin)” value (per-protocol set) was -0.28 ng/mL, the “Change from baseline in leptin, Mean” value (per-protocol set) was -1.96 ng/mL and the “Change from baseline in leptin, Median” value (per-protocol set) was -1.28 ng/mL. For the same compound, the “HOMA-IR (insulin resistance), Mean” value (per-protocol set) was 1.76, the “HOMA-IR (insulin resistance), Median” value (per-protocol set) was 1.46 and the “HOMA-β (beta-cell function), Mean” value (per-protocol set) was 49.46. For the same compound, the “HOMA-β (beta-cell function), Median” value (per-protocol set) was 41.50, the “Leptin, Mean” value (per-protocol set) was 8.56 ng/mL and the “Leptin, Median” value (per-protocol set) was 5.74 ng/mL. For the same compound, the “UACR, Mean” value (per-protocol set) was 29.37 g/kg, the “UACR, Median” value (per-protocol set) was 11.20 g/kg and the “UGCR, Mean” value (per-protocol set) was 57.71 mg/mg. The “UGCR, Median” value (per-protocol set) was 57.43 mg/mg, the “Achieving HbA1c target of <6.5%, odds ratio (logistic regression model)” value [2] was 1.44 and the “Achieving HbA1c target of <7%, odds ratio (logistic regression model)” value [2] was 1.20. The “Change from baseline in FPG, ANCOVA LS mean difference” value [2] was -2.75 mg/dL, the “Change from baseline in HbA1c, ANCOVA LS mean difference” value [2] was −0.04 % p and the “Change from baseline in body weight, ANCOVA LS mean difference” value [2] was -0.01 kg. For the same compound, the “Change from baseline in fasting C-peptide, ANCOVA LS mean difference” value [2] was -0.02 ng/mL, the “Therapeutic glycemic response 1, odds ratio (logistic regression model)” value [2] was 1.09 and the “Therapeutic glycemic response 2, odds ratio (logistic regression model)” value [2] was 1.30. For the same compound, the “Therapeutic glycemic response 3, odds ratio (logistic regression model)” value [2] was 1.31, the “Body weight, Mean” value [3] was 66.54 kg and the “Change from baseline in FPG, ANCOVA LS mean” value [3] was -27.17 mg/dL. The “Change from baseline in FPG, Mean” value [3] was -27.47 mg/dL, the “Change from baseline in FPG, Median” value [3] was -25.00 mg/dL and the “Change from baseline in HbA1c, ANCOVA LS mean” value [3] was −0.87 % p. The “Change from baseline in HbA1c, Mean” value [3] was −0.89 % p, the “Change from baseline in HbA1c, Median” value [3] was −0.75 % p and the “Change from baseline in body weight, ANCOVA LS mean” value [3] was -2.72 kg. For the same compound, the “Change from baseline in body weight, Mean” value [3] was -2.65 kg, the “Change from baseline in body weight, Median” value [3] was -2.90 kg and the “Change from baseline in fasting C-peptide, ANCOVA LS mean” value [3] was -0.09 ng/mL. The “Change from baseline in fasting C-peptide, Mean” value [3] was -0.09 ng/mL, the “Change from baseline in fasting C-peptide, Median” value [3] was -0.10 ng/mL and the “FPG, Mean” value [3] was 112.29 mg/dL. The “FPG, Median” value [3] was 110.00 mg/dL, the “Fasting C-peptide, Mean” value [3] was 0.64 ng/mL and the “Fasting C-peptide, Median” value [3] was 0.63 ng/mL. For the same compound, the “HbA1c, Mean” value [3] was 6.90%.
